Measurements published in article PMC8822125, “RW-BP100-4D, a Promising Antimicrobial Candidate With Broad-Spectrum Bactericidal Activity” (Frontiers in Microbiology, 2022).
≈ marks a conversion by molar mass, not a printed value. Where “and” joins values, the source holds several entries; their conditions need not be identical. Identical values can stand only once. Where a SMILES comes first, the peptide text is derived from it.

Assays:
[1] = target: papain (Carica papaya, UniProt P00784); conditions: 100 μg/mL peptide, papain 1 mg/mL, 37°C, 1 h; decrease of HPLC peak area (C8, UV 220 nm)
Chain of papain (P00784 134-345): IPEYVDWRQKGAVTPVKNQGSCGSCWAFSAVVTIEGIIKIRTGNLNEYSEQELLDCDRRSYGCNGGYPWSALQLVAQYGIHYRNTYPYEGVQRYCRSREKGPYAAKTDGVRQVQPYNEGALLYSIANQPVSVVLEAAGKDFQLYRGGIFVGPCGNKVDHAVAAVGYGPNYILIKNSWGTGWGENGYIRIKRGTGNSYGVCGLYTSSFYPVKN

[2] = tested on: Escherichia coli ATCC25922
[3] = tested on: Staphylococcus aureus ATCC29213; assay: MIC/MBC, broth microdilution; format: cell-based
[4] = in vitro; conditions: calf serum
[5] = tested on: sheep red blood cells; conditions: sheep red blood cells in PBS, 37°C, 1 h, OD576, relative to melittin, mean ± SD, three repeats;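 further: hemolysis expressed in % from supernatant absorbance, with PBS-treated cells as 0% baseline and melittin as 100%, peptide mixed 1:1 with an 8% v/v erythrocyte suspension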
[6] = tested on: Escherichia coli 47EC; conditions: Escherichia coli 47EC (tet(X4)); mean of three repeated experiments
[7] = tested on: various microorganisms; assay: MIC/MBC, summary statements over several strains; format: cell-based
[8] = 100 μg/mL in PBS, 1 h
[9] = tested on: MAC-T cells; conditions: peptide 150 μg/mL, 24 h, WST-1, mean ± SD, three repeats
[10] = tested on: E. coli ATCC25922, S. aureus ATCC29213, and C. albicans ATCC10231; assay: Stress stability, fold change of MIC against the three reference strains; format: cell-based; conditions: proteinase K 1 mg/mL, 37°C, 1 h
[11] = tested on: Shewanella putrefaction ATCC49138; conditions: mean of three repeated experiments
Protocol: (§1) To compare the antibacterial activity of RW-BP100 and its serial derivatives, the MIC against S. aureus ATCC29213 and E. coli ATCC25922 were determined using broth microdilution method according to the guidelines of Clinical and Laboratory Standards Institute (CLSI) M100-S25 ([CLSI, 2015]). Briefly, peptides were dissolved in sterilized water and twofold diluted in Mueller-Hinton (MH) broth (Beijing Land Bridge Technology) at the concentration ranges of 0.098–100 μg/mL. Then the peptides were mixed with an equal volume (100 μL) of bacterial suspensions of 10^6 CFU/mL in a sterilized 96-well microtiter plate. […] To further evaluate the antimicrobial spectrum of RW-BP100-4D, MICs were determined against a more variety of Gram-positive and Gram-negative bacterial species, and the fungal strains (according to CLSI M38 guideline). […] MIC and MBC testing were performed with three independent repeats.

[12] = tested on: Streptococcus agalactiae ATCC13813; conditions: mean of three repeated experiments
Protocol: as §1

[13] = tested on: Pseudomonas fluorescens AC04; conditions: mean of three repeated experiments
Protocol: as §1

[14] = tested on: Enterococcus faecalis JH2-2; conditions: mean of three repeated experiments
Protocol: as §1

[15] = tested on: Staphylococcus epidermidis ATCC29887; conditions: mean of three repeated experiments
Protocol: as §1

[16] = tested on: Klebsiella pneumoniae XG-Kpn03; conditions: Klebsiella pneumoniae XG-Kpn03 (blaNDM-5); mean of three repeated experiments
Protocol: as §1

[17] = tested on: Escherichia coli XG-E1; conditions: Escherichia coli XG-E1 (blaNDM-5, mcr-1); mean of three repeated experiments
Protocol: as §1

[18] = tested on: Listeria monocytogenes ATCC19115; conditions: mean of three repeated experiments
Protocol: as §1

[19] = tested on: Pseudomonas aeruginosa 42; conditions: mean of three repeated experiments
Protocol: as §1

[20] = tested on: Acinetobacter baumannii 34AB; conditions: Acinetobacter baumannii 34AB (tet(X3)); mean of three repeated experiments
Protocol: as §1

[21] = tested on: Salmonella enterica ATCC13076; conditions: mean of three repeated experiments
Protocol: as §1

[22] = tested on: Enterococcus faecalis 32; conditions: Enterococcus faecalis 32 (optrA); mean of three repeated experiments
Protocol: as §1

[23] = tested on: Listeria monocytogenes LM08; conditions: Listeria monocytogenes LM08 (tetM); mean of three repeated experiments
Protocol: as §1

[24] = tested on: Campylobacter jejuni ATCC33291; conditions: mean of three repeated experiments
Protocol: as §1

[25] = tested on: Staphylococcus aureus ATCC33591; conditions: Staphylococcus aureus ATCC33591 (mecA); mean of three repeated experiments
[26] = tested on: S. aureus ATCC29213 biofilm formation; conditions: peptide 6.25 μg/mL, 24 h, 37°C, crystal violet OD590
[27] = tested on: S. aureus ATCC29213; conditions: 1 h, mean of three
[28] = Table 1, broth microdilution CLSI M100-S25, MH broth, 37°C, 18 h, three independent repeats

CC[C@H](C)[C@H](NC(=O)[C@H](CCCNC(=N)N)NC(=O)[C@H](CCCNC(=N)N)NC(=O)[C@@H](Cc1ccccc1)NC(=O)[C@H](CC(C)C)NC(=O)[C@H](CCCNC(=N)N)NC(=O)[C@@H](N)CCCNC(=N)N)C(=O)N[C@@H](CC(C)C)C(=O)N[C@@H](CCCNC(=N)N)C(=O)N[C@@H](Cc1c[nH]c2ccccc12)C(=O)N[C@@H](CC(C)C)C(N)=O [RW-BP100-4D] (HELM PEPTIDE1{R.R.L.[dF].R.R.I.L.R.W.L.[am]}$$$$V2.0)
Degradation, papain [1]: >90%
MBC of peptides ([2]; Escherichia coli ACTT25922, mean of three repeated experiments): 12 µg/mL
MIC Escherichia coli ATCC25922 [2, 28]: 6 µg/mL (≈ 3.79 µM)
MIC of peptides ([2]; Table 2, Escherichia coli ACTT25922, mean of three repeated experiments): 6 µg/mL
MIC Staphylococcus aureus ATCC29213 [3, 28]: 3 µg/mL (≈ 1.89 µM)
MIC of peptides ([3]; Table 2, Staphylococcus aureus ATCC29213, mean of three repeated experiments): 6 µg/mL and 3 µg/mL
metabolised at 1 h, 100 μg/mL [4]: > 90%
Hemolytic rate, 50 μg/mL ([5]; 50 μg/mL peptide): 0.11 ± 0.19%
Hemolytic rate, 100 μg/mL ([5]; 100 μg/mL peptide): 3.69 ± 0.01%
Hemolytic rate, 150 μg/mL ([5]; 150 μg/mL peptide): 18.75 ± 0.42%
Hemolytic rate, 300 μg/mL ([5]; 300 μg/mL peptide): 48.55 ± 2.53%
MBC of peptides [6]: 12 µg/mL
MIC of peptides [6]: 3 µg/mL and 6 µg/mL
MICs against the selected Gram-negative bacterial isolates ([7]; E. coli, Salmonella enterica, K. pneumoniae, C. jejuni, A. baumannii, Pseudomonas spp., S. putrefaction, range over strains): 3 to 25 µg/mL
MIC against S. aureus ATCC29213 and E. coli ATCC25922 (both strains together) ([7]; summary of Table 1): 3 to 12 µg/mL
Degradation, 40-80 ℃ ([8]; pH 7, 40-80 ℃, decrease of HPLC peak area (C8, UV 220 nm) of native peptide): 0%
Degradation, 90 ℃ ([8]; pH 7, 90 ℃, decrease of HPLC peak area (C8, UV 220 nm)): 56%
Degradation, 100 ℃ ([8]; pH 7, 100 ℃, decrease of HPLC peak area (C8, UV 220 nm)): 82%
Cell survival rate, MAC-T [9]: 92.68 ± 3.65%
MICs after treatment with proteinase K, fold of the original level [10]: 4–8 fold
MBC of peptides [11]: 12 µg/mL
MIC of peptides [11]: 6 µg/mL
MBC of peptides [12]: 6 µg/mL
MIC of peptides [12]: 3 µg/mL
MBC of peptides [13]: 12 µg/mL
MIC of peptides [13]: 6 µg/mL
MBC of peptides [14]: 50 µg/mL
MIC of peptides [14]: 12 µg/mL
MBC of peptides [15]: 6 µg/mL
MIC of peptides [15]: 3 µg/mL
MBC of peptides [16]: 50 µg/mL
MIC of peptides [16]: 25 µg/mL
MBC of peptides [17]: 6 µg/mL
MIC of peptides [17]: 3 µg/mL
MBC of peptides [18]: 6 µg/mL
MIC of peptides [18]: 3 µg/mL
MBC of peptides [19]: 50 µg/mL
MIC of peptides [19]: 12 µg/mL
MBC of peptides [20]: 12 µg/mL
MIC of peptides [20]: 6 µg/mL
MBC of peptides [21]: 6 µg/mL
MIC of peptides [21]: 3 µg/mL
MBC of peptides [22]: 50 µg/mL
MIC of peptides [22]: 12 µg/mL
MBC of peptides [23]: 6 µg/mL
MIC of peptides [23]: 3 µg/mL
MBC of peptides [24]: 12 µg/mL
MIC of peptides [24]: 6 µg/mL
MBC of peptides [25]: 6 µg/mL
MIC of peptides [25]: 6 µg/mL and 3 µg/mL
Biofilm inhibited compared with the PBS control [26]: 82.3%
MIC of RW-BP100-4D against S. aureus ATCC29213 after 40-80 ℃ ([27]; 100 μg/mL peptide in PBS, pH 7, 40-80 ℃, then broth microdilution): 3 µg/mL
MIC of RW-BP100-4D against S. aureus ATCC29213 after 90 ℃ ([27]; 100 μg/mL peptide in PBS, pH 7, 90 ℃): 6 µg/mL
MIC of RW-BP100-4D against S. aureus ATCC29213 after 100 ℃ ([27]; 100 μg/mL peptide in PBS, pH 7, 100 ℃): 25 µg/mL
MIC of RW-BP100-4D against S. aureus ATCC29213 after papain ([27]; 100 μg/mL peptide with papain 1 mg/mL, 37°C, protease inactivated 80°C 30 min): >50 µg/mL
MIC of RW-BP100-4D against S. aureus ATCC29213 after calf serum ([27]; 100 μg/mL peptide with sterile calf serum, 37°C, serum inactivated 80°C 30 min): >50 µg/mL
MIC of RW-BP100-4D against S. aureus ATCC29213 after trypsin ([27]; 100 μg/mL peptide with trypsin 1 mg/mL, 37°C, protease inactivated 80°C 30 min): >50 µg/mL
MIC of RW-BP100-4D against S. aureus ATCC29213 after pH 2-7 ([27]; 100 μg/mL peptide, pH 2-7, 37°C, then adjusted to pH 7.0): 3 µg/mL
MIC of RW-BP100-4D against S. aureus ATCC29213 after pH 8-9 ([27]; 100 μg/mL peptide, pH 8-9, 37°C, then adjusted to pH 7.0): 12 µg/mL
